Test results published in patent publication US9951025B2, “Halogenopyrazoles as inhibitors of thrombin” (VERSEON CORPORATION, priority 2013, dated 2018).
pIC50: −log10 of the molar value.

What follows are compounds tested against T1, Human thrombin (Homo sapiens, UniProt P00734) (assay: thrombin protease inhibition assay, chromogenic substrate S-2238). Conditions: 3 nM human thrombin, 125 μM S-2238, 10 min pre-incubation, RT.
T1 construct: purchased Haematologic Technologies Inc
Format: biochemical
Description: Compounds described herein can be assayed, by a variety of methods known in the art and described herein, for inhibition of biological activity, e.g., protease activity, of a variety of proteins, e.g., thrombin.
The thrombin activity reported herein (e.g., Table A) was obtained as follows. […] Thrombin was assayed in buffer containing 0.05 M Tris (pH 7.4), 0.015 M NaCl and 0.01% PEG-8000. The final concentration of enzyme used was 3 nM thrombin. […] All assays were performed in 96-well microtiter plates at room temperature (RT). […] Inhibitor IC50 values were determined by adding test compound as ten point, three-fold serial dilutions in buffer solution, as known in the art. The plate was read at 10 minutes after substrate addition. The IC50 was calculated by plotting the percent (%) inhibition against compound concentration and fitting the data to a constrained four parameter sigmoidal curve, as known in the art.
`COc1ccccc1C(=O)n1nc(NCc2ccc(Cl)s2)c(F)c1C1CCOCC1` [Compound 45, N-[(5-chlorothiophen-2-yl)methyl]-4-fluoro-1-(2-methoxybenzoyl)-5-(oxan-4-yl)-1H-pyrazol-3-amine] gave a pIC50 of less than 6.00.
`CC(C)(CO)C(=O)n1nc(-c2ccccc2)c(F)c1NCc1ccc(Cl)s1` [Compound 14, 1-(5-[(5-chlorothiophen-2-yl)methyl]amino-4-fluoro-3-phenyl-1H-pyrazol-1-yl)-3-hydroxy-2,2-dimethylpropan-1-one] gave a pIC50 greater than 7.00.
Work on `CN(C)c1cccc2c(S(=O)(=O)Nc3ccc(C(=O)n4nc(C5CCNCC5)c(F)c4NCc4ccc(Cl)s4)cc3)cccc12` [Compound 57, N-[4-(5-[(5-chlorothiophen-2-yl)methyl]amino-4-fluoro-3-(piperidin-4-yl)-1H-pyrazole-1-carbonyl)phenyl]-5-(dimethylamino)naphthalene-1-sulfonamide] yielded a pIC50 greater than 7.00.
`O=C(c1ccoc1)n1nc(C2CCNCC2)c(F)c1NCc1ccc(Cl)s1` [Compound 50, N-[(5-chlorothiophen-2-yl)methyl]-4-fluoro-1-(furan-3-carbonyl)-3-(piperidin-4-yl)-1H-pyrazol-5-amine] was tested, and the pIC50 was greater than 7.00.
In the case of `CN(C)c1cccc2c(S(=O)(=O)Nc3ccc(C(=O)n4nc(-c5ccccc5)c(F)c4NCc4ccc(Cl)s4)cc3)cccc12` [Compound 58, N-[4-(5-[(5-chlorothiophen-2-yl)methyl]amino-4-fluoro-3-phenyl-1H-pyrazole-1-carbonyl)phenyl]-5-(dimethylamino)naphthalene-1-sulfonamide], the pIC50 was greater than 7.00.
For `COCC(C)(C)C(=O)n1nc(C2CCOCC2)c(F)c1NCc1ccc(Cl)s1` [Compound 5, 1-(5-[(5-chlorothiophen-2-yl)methyl]amino-4-fluoro-3-(oxan-4-yl)-1H-pyrazol-1-yl)-3-methoxy-2,2-dimethylpropan-1-one], the pIC50 was greater than 7.00.
With `O=C(c1ccoc1)n1nc(-c2ccccc2)c(F)c1NCc1ccc(Cl)s1` [Compound 51, N-[(5-chlorothiophen-2-yl)methyl]-4-fluoro-1-(furan-3-carbonyl)-3-phenyl-1H-pyrazol-5-amine] the pIC50 was greater than 7.00.
For `COc1ccccc1C(=O)n1nc(-c2ccc(C(O)C(F)(F)F)cc2)c(F)c1NCc1ccc(Cl)s1` (centres unmarked) [Compound 18, 1-[4-(5-[(5-chlorothiophen-2-yl)methyl]amino-4-fluoro-1-(2-methoxybenzoyl)-1H-pyrazol-3-yl)phenyl]-2,2,2-trifluoroethan-1-ol], the pIC50 was less than 6.00.
`COc1ccc(C(=O)n2nc(-c3ccccc3)c(F)c2NCc2ccc(Cl)s2)c(OC)c1` [Compound 38, N-[(5-chlorothiophen-2-yl)methyl]-1-(2,4-dimethoxybenzoyl)-4-fluoro-3-phenyl-1H-pyrazol-5-amine] showed a pIC50 greater than 7.00.
`CC(C)(C)C(=O)n1nc(-c2ccccc2)c(F)c1NCc1ccc(Cl)s1` [Compound 10, 1-(5-[(5-chlorothiophen-2-yl)methyl]amino-4-fluoro-3-phenyl-1H-pyrazol-1-yl)-2,2-dimethylpropan-1-one] showed a pIC50 greater than 7.00.
Compound `O=C(c1ccccc1)n1nc(C2CCOCC2)c(F)c1NCc1ccc(Cl)s1` [Compound 24, 1-benzoyl-N-[(5-chlorothiophen-2-yl)methyl]-4-fluoro-3-(oxan-4-yl)-1H-pyrazol-5-amine] has a pIC50 greater than 7.00.
In the case of `CN(C)c1cccc2c(S(=O)(=O)Oc3ccccc3C(=O)n3nc(-c4ccccc4)c(F)c3NCc3ccc(Cl)s3)cccc12` [Compound 26, 2-(5-[(5-chlorothiophen-2-yl)methyl]amino-4-fluoro-3-phenyl-1H-pyrazole-1-carbonyl)phenyl 5-(dimethylamino)naphthalene-1-sulfonate], the pIC50 was 6.00 to 7.00.
For `O=C(c1ccccc1)n1nc(NCc2ccc(Cl)s2)c(F)c1C1CCOCC1` [Compound 25, 1-benzoyl-N-[(5-chlorothiophen-2-yl)methyl]-4-fluoro-5-(oxan-4-yl)-1H-pyrazol-3-amine], the pIC50 was less than 6.00.
`O=C(c1cccc2c1OCCO2)n1nc(C2CCOCC2)c(F)c1NCc1ccc(Cl)s1` [Compound 32, N-[(5-chlorothiophen-2-yl)methyl]-1-(2,3-dihydro-1,4-benzodioxine-5-carbonyl)-4-fluoro-3-(oxan-4-yl)-1H-pyrazol-5-amine] showed a pIC50 greater than 7.00.
In the case of `COCC(C)(C)C(=O)n1nc(-c2ccccc2)c(F)c1NCc1ccc(Cl)s1` [Compound 15, 1-(5-[(5-chlorothiophen-2-yl)methyl]amino-4-fluoro-3-phenyl-1H-pyrazol-1-yl)-3-methoxy-2,2-dimethylpropan-1-one], the pIC50 was greater than 7.00.
Work on `CC(C)(C)C(=O)n1nc(-c2ccc(N3CCOCC3=O)cc2)c(F)c1NCc1ccc(Cl)s1` [Compound 28, 4-[4-(5-[(5-chlorothiophen-2-yl)methyl]amino-1-(2,2-dimethylpropanoyl)-4-fluoro-1H-pyrazol-3-yl)phenyl]morpholin-3-one] yielded a pIC50 greater than 7.00.
For `CC(C)(C)C(=O)n1nc(-c2ccccc2)c(F)c1NCc1ccccc1` [Compound 23, 1-[5-(benzylamino)-4-fluoro-3-phenyl-1H-pyrazol-1-yl]-2,2-dimethylpropan-1-one], the pIC50 was greater than 7.00.
`COc1ccccc1C(=O)n1nc(-c2ccc(N3CCCC3=O)cc2)c(F)c1NCc1ccc(Cl)s1` [Compound 19, 1-[4-(5-[(5-chlorothiophen-2-yl)methyl]amino-4-fluoro-1-(2-methoxybenzoyl)-1H-pyrazol-3-yl)phenyl]pyrrolidin-2-one] was tested, and the pIC50 was greater than 7.00.
`COC(C)(C)C(=O)n1nc(C2CCNCC2)c(F)c1NCc1ccc(Cl)s1` [Compound 7, 1-(5-[(5-chlorothiophen-2-yl)methyl]amino-4-fluoro-3-(piperidin-4-yl)-1H-pyrazol-1-yl)-2-methoxy-2-methylpropan-1-one] gave a pIC50 greater than 7.00.
`CC(C)(C)C(=O)n1nc(-c2ccc3c(c2)CCCC3O)c(F)c1NCc1ccc(Cl)s1` (centres unmarked) [Compound 2, 1-(5-[(5-chlorothiophen-2-yl)methyl]amino-4-fluoro-3-(5-hydroxy-5,6,7,8-tetrahydronaphthalen-2-yl)-1H-pyrazol-1-yl)-2,2-dimethylpropan-1-one] was tested, and the pIC50 was less than 6.00.
`CC(C)(C)C(=O)n1nc(-c2ccccn2)c(F)c1NCc1ccccc1` [Compound 22, 1-[5-(benzylamino)-4-fluoro-3-(pyridin-2-yl)-1H-pyrazol-1-yl]-2,2-dimethylpropan-1-one] gave a pIC50 greater than 7.00.
With `O=C(c1cccc2c1OCCO2)n1nc(-c2ccccc2)c(F)c1NCc1ccc(Cl)s1` [Compound 34, N-[(5-chlorothiophen-2-yl)methyl]-1-(2,3-dihydro-1,4-benzodioxine-5-carbonyl)-4-fluoro-3-phenyl-1H-pyrazol-5-amine] the pIC50 was greater than 7.00.
`COc1ccccc1C(=O)n1nc(-c2ccc3c(c2)CCCC3O)c(F)c1NCc1ccc(Cl)s1` (centres unmarked) [Compound 30, 6-(5-[(5-chlorothiophen-2-yl)methyl]amino-4-fluoro-1-(2-methoxybenzoyl)-1H-pyrazol-3-yl)-1,2,3,4-tetrahydronaphthalen-1-ol] was tested, and the pIC50 was less than 6.00.
With `CC1(C(=O)n2nc(-c3ccccc3)c(F)c2NCc2ccc(Cl)s2)CCOCC1` [Compound 48, N-[(5-chlorothiophen-2-yl)methyl]-4-fluoro-1-(4-methyloxane-4-carbonyl)-3-phenyl-1H-pyrazol-5-amine] the pIC50 was greater than 7.00.
Work on `COCCOCC(C)(C)C(=O)n1nc(-c2ccccc2)c(F)c1NCc1ccc(Cl)s1` [Compound 13, 1-(5-[(5-chlorothiophen-2-yl)methyl]amino-4-fluoro-3-phenyl-1H-pyrazol-1-yl)-3-(2-methoxyethoxy)-2,2-dimethylpropan-1-one] yielded a pIC50 greater than 7.00.
In the case of `COCCOc1ccc(C(=O)n2nc(C3CCOCC3)c(F)c2NCc2ccc(Cl)s2)cc1` [Compound 52, N-[(5-chlorothiophen-2-yl)methyl]-4-fluoro-1-[4-(2-methoxyethoxy)benzoyl]-3-(oxan-4-yl)-1H-pyrazol-5-amine], the pIC50 was greater than 7.00.
Compound `COc1ccccc1C(=O)N(Cc1ccc(Cl)s1)c1[nH]nc(-c2ccc3c(c2)CCCC3=O)c1F` [Compound 56, N-[(5-chlorothiophen-2-yl)methyl]-N-[4-fluoro-3-(5-oxo-5,6,7,8-tetrahydronaphthalen-2-yl)-1H-pyrazol-5-yl]-2-methoxybenzamide] has a pIC50 of less than 6.00.
For `O=C(c1ccsc1)n1nc(C2CCOCC2)c(F)c1NCc1ccc(Cl)s1` [Compound 54, N-[(5-chlorothiophen-2-yl)methyl]-4-fluoro-3-(oxan-4-yl)-1-(thiophene-3-carbonyl)-1H-pyrazol-5-amine], the pIC50 was greater than 7.00.
For `O=C(n1nc(-c2ccccc2)c(F)c1NCc1ccc(Cl)s1)C1(CO)CC1` [Compound 62, [1-(5-[(5-chlorothiophen-2-yl)methyl]amino-4-fluoro-3-phenyl-1H-pyrazole-1-carbonyl)cyclopropyl]methanol], the pIC50 was greater than 7.00.
Work on `O=C1CCCN1c1ccc(-c2nn(C(=O)c3cccc4c3OCCO4)c(NCc3ccc(Cl)s3)c2F)cc1` [Compound 17, 1-[4-(5-[(5-chlorothiophen-2-yl)methyl]amino-1-(2,3-dihydro-1,4-benzodioxine-5-carbonyl)-4-fluoro-1H-pyrazol-3-yl)phenyl]pyrrolidin-2-one] yielded a pIC50 greater than 7.00.
`CC(C)(C)C(=O)n1nc(-c2ccc(N3CCCC3=O)cc2)c(F)c1NCc1ccc(Cl)s1` [Compound 16, 1-[4-(5-[(5-chlorothiophen-2-yl)methyl]amino-1-(2,2-dimethylpropanoyl)-4-fluoro-1H-pyrazol-3-yl)phenyl]pyrrolidin-2-one] showed a pIC50 greater than 7.00.
In the case of `O=C(N1CCC(c2n[nH]c(NCc3ccc(Cl)s3)c2F)CC1)C1(O)CC1` [Compound 21, 1-[4-(5-[(5-chlorothiophen-2-yl)methyl]amino-4-fluoro-1H-pyrazol-3-yl)piperidine-1-carbonyl]cyclopropan-1-ol], the pIC50 was 6.00 to 7.00.
